This note sets out measurements from patent publication US12060351B2, “Thiadiazole IRAK4 inhibitors” (Gilead Sciences, Inc., priority 2018, dated 2024).

As a reminder, the EC50 is the concentration giving half of the maximal effect. For orientation: IC50 means the concentration that gives 50% inhibition.

Like-named read-outs stand apart in the source and are kept apart here.

Test [1] deals with TNFα. The test is described as follows: IRAK4 Monocyte TNFα Cell Based Assay (LPS-stimulated, TR-FRET TNFα detection). The arrangement: species or system human. As to conditions: human monocytes, LPS-stimulated, Table 2 second part (compounds 33-343), read-out: EC50 MONO TNF HTRF. How it is done:
IRAK4 Monocyte TNFα Cell Based Assay Procedure:
The cell suspension was then plated at a density of 5,000 cells/well onto black 384 well Greiner clear bottom plates. Plates were pre-spotted with test compounds and serially diluted in DMSO where 40 nL/well were delivered using the Echo 550 acoustic liquid dispenser (Labcyte®) for a final DMSO concentration of 0.1%. Plated cells were treated with compound for 1 hour at 37° C. Cells were then stimulated with 50 pg/ml of LPS (Sigma) excluding outside columns of plate used for unstimulated cell control wells. Cells were incubated for an additional 4 hours at 37° C. Cells were then spun out of the media and 5 μl of sample were taken and analyzed for total TNFα content using the TR-FRET Human TNFα detection system (CisBio). This system utilizes two labeled antibodies (cryptate and XL665) that bind to two different epitopes of the TNFα molecule and produce FRET signal proportional to the concentration of TNFα in the sample. Detection antibodies are mixed 50:50 and 5 μL were dispensed into each well. Plates were covered with clear seals and incubated at room temp overnight. […] Percent of control was calculated as follows: % Control=100×(RatioSample−Ratio0% Stimulation)/(Ratio100% Stimulation−Ratio0% Stimulation) where unstimulated cells (0% stimulation) were the negative control and stimulated cells (100% stimulation) were used as the positive control.

The target of test [2] is T1, IRAK4 enzyme (Homo sapiens, UniProt Q9NWZ3).
T1 construct: purchased Carna Biosciences, Chuo-ku, Kobe, Japan
T1 sequence (Q9NWZ3 1-460): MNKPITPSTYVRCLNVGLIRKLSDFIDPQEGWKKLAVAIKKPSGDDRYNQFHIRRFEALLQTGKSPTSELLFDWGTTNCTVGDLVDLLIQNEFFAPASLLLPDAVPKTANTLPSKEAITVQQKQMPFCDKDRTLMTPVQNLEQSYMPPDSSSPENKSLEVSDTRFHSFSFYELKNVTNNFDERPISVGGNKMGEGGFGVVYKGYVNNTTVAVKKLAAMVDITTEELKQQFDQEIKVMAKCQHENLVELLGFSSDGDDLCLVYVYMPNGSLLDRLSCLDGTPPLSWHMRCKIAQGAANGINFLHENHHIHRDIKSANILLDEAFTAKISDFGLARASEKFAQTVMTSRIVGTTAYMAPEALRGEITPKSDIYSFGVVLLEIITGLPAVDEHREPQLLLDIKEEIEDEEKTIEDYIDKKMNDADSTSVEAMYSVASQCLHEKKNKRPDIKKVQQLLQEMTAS
The test is described as follows: IRAK4 Biochemical Assay (TR-FRET, STK1 KinEASE). As to conditions: 500 μM ATP, Table 2 second part (compounds 33-343), read-out: IC50 IRAK4-HTBS. On the procedure: IRAK4 enzyme (Carna Biosciences, Chuo-ku, Kobe, Japan) activity was measured by detecting phosphorylated peptide substrate formation using an antibody against the phosphorylated peptide substrate. This is a time-resolved fluorescence resonance energy transfer (TR-FRET) immunoassay, based on the STK1 KinEASE Assay (Cisbio, Bedford, Massachusetts). The assay was designed as a simple two-step, endpoint assay (a 5 μl enzyme reaction followed by 5 μl stop and detect Solution) performed in ProxiPlate-384 Plus plates (Perkin Elmer, Waltham, Massachusetts). […] Compounds diluted in DMSO were spotted into 384 well plates using a Labcyte® Echo 550 Liquid Handling System prior to addition of IRAK4 enzyme and peptide substrate. Reaction solutions were delivered using a Multi-Flo (Bio-Tek Instruments). The enzyme and peptide solution was incubated with compound for 15 minutes at room temp before the reaction was initiated by the addition of ATP. The standard 5 μl reaction mixture contained 500 μM ATP, 2 μM peptide (STK1 Peptide), 0.75 nM of IRAK4 in reaction buffer (50 mM HEPES, pH 7.0, 0.02% NaN3, 0.01% BSA, 0.1 mM Orthovanadate, 5 mM MgCl2, 0.025% NP-40, 1 mM DTT). After 120 min of incubation at room temperature, 5 μl of Stop and Detect Solution (1:100 Cryptate labeled anti-phosphorylated peptide antibody solution and 125 nM Tracer in a 50 mM HEPES pH 7.0 detection buffer containing sufficient EDTA) was added. The plate was then further incubated for 60 minutes at room temperature and read on Envision 2103 Multilabeled reader (PerkinElmer) with excitation/emission/FRET emission at 340 nm/615 nm/665 nm, respectively. Fluorescence intensities at 615 nm and 665 nm emission wavelengths were expressed as a ratio (665 nm/615 nm).

Turning to “7-(5-(5-(4-aminobicyclo[2.2.2]octan-1-yl)-1,3,4-thiadiazol-2-yl)-4-((tetrahydro-2H-pyran-4-yl)amino)pyridin-2-yl)pyrrolo[1,2-b]pyridazine-3-carbonitrile [Example 336]”, the EC50 in test [1] turned out to be 11 nM. In addition, the IC50 in test [2] is 0.7 nM.

For `CC(=O)N[C@@H]1[C@@H]2CN(c3nnc(-c4cnc(-c5ccc6cc(C#N)cnn56)cc4NC(C)C)s3)C[C@@H]21` [Compound 239, N-((1R,5S,6r)-3-(5-(6-(3-cyanopyrrolo[1,2-b]pyridazin-7-yl)-4-(isopropylamino)pyridin-3-yl)-1,3,4-thiadiazol-2-yl)-3-azabicyclo[3.1.0]hexan-6-yl)acetamide], the EC50 in test [1] (Homo sapiens, Monocyte) came to 4.9 nM. In addition, the IC50 in test [2] was 0.11 nM.

On to `CC(=O)N[C@H]1[C@@H]2CN(c3nnc(-c4cnc(-c5ccc6cc(C#N)cnn56)cc4NC(C)C)s3)C[C@@H]21` [Compound 240, N-((1R,5S,6s)-3-(5-(6-(3-cyanopyrrolo[1,2-b]pyridazin-7-yl)-4-(isopropylamino)pyridin-3-yl)-1,3,4-thiadiazol-2-yl)-3-azabicyclo[3.1.0]hexan-6-yl)acetamide], for which the EC50 in test [1] (Homo sapiens, Monocyte) amounted to 8.9 nM. Moreover, the IC50 in test [2] amounted to 0.15 nM.

For `CC(=O)N[C@H]1CC[C@H](c2nnc(-c3cnc(-c4ccc5cc(C#N)cnn45)cc3NC34CCC(O)(CC3)CC4)s2)CC1` [Compound 241, N-((1r,4r)-4-(5-(6-(3-cyanopyrrolo[1,2-b]pyridazin-7-yl)-4-((4-hydroxybicyclo[2.2.2]octan-1-yl)amino)pyridin-3-yl)-1,3,4-thiadiazol-2-yl)cyclohexyl)acctamide], the EC50 in test [1] (Homo sapiens, Monocyte) turned out to be 4.8 nM. The IC50 in test [2] was found to be 1.39 nM.

For the compound `CC(=O)N[C@H]1CC[C@H](c2nnc(-c3cnc(-c4ccc5cc(C#N)cnn45)cc3N[C@H]3C[C@@](C)(O)C3)s2)CC1` [Compound 243, N-((1R,4r)-4-(5-(6-(3-cyanopyrrolo[1,2-b]pyridazin-7-yl)-4-(((1s,3S)-3-hydroxy-3-methylcyclobutyl)amino)pyridin-3-yl)-1,3,4-thiadiazol-2-yl)cyclohexyl)acetamide], in test [1] (Homo sapiens, Monocyte), the EC50 is 6.4 nM. In addition, the IC50 in test [2] was found to be 0.55 nM.

For `CC(=O)N[C@H]1CC[C@H](c2nnc(-c3cnc(-c4ccc5cc(C#N)cnn45)cc3N[C@H]3CCC[C@@H](O)C3)s2)CC1` [Compound 245, N-((1S,4r)-4-(5-(6-(3-cyanopyrrolo[1,2-b]pyridazin-7-yl)-4-(((1S,3R)-3-hydroxycyclohexyl)amino)pyridin-3-yl)-1,3,4-thiadiazol-2-yl)cyclohexyl)acetamide], the EC50 in test [1] (Homo sapiens, Monocyte) came out at 3.2 nM. Further, in test [2], the IC50 was determined as 0.55 nM.

`CC(=O)N[C@H]1CC[C@H](c2nnc(-c3cnc(-c4ccc5cc(C#N)cnn45)cc3NC3CCOCC3)s2)CC1` [Compound 255, N-((1r,4r)-4-(5-(6-(3-cyanopyrrolo[1,2-b]pyridazin-7-yl)-4-((tetrahydro-2H-pyran-4-yl)amino)pyridin-3-yl)-1,3,4-thiadiazol-2-yl)cyclohexyl)acetamide]: in test [1] (Homo sapiens, Monocyte), the EC50 stood at 5.1 nM. The IC50 in test [2] turned out to be 0.63 nM.

`CC(C)Nc1cc(-c2ccc3cc(C#N)cnn23)ncc1-c1nnc(N2CCS(=N)(=O)CC2)s1` [Compound 262, 7-(5-(5-(1-imino-1-oxido-116-thiomorpholino)-1,3,4-thiadiazol-2-yl)-4-(isopropylamino)pyridin-2-yl)pyrrolo[1,2-b]pyridazine-3-carbonitrile]: the EC50 in test [1] (Homo sapiens, Monocyte) was 69.9 nM. For the same compound, the IC50 in test [2] was found to be 3.81 nM.

With `CC(=O)N[C@H]1CC[C@H](c2nnc(-c3cnc(-c4ccc5cc(C#N)cnn45)cc3NC3(C)CCOCC3)s2)CC1` [Compound 268, N-((1r,4r)-4-(5-(6-(3-cyanopyrrolo[1,2-b]pyridazin-7-yl)-4-((4-methyltetrahydro-2H-pyran-4-yl)amino)pyridin-3-yl)-1,3,4-thiadiazol-2-yl)cyclohexyl)acetamide], in test [1] (Homo sapiens, Monocyte), the EC50 came to 14.1 nM. Besides, in test [2], the IC50 is 0.61 nM.

Turning to `CC(=O)N[C@@H]1[C@@H]2CC[C@H]1CN(c1nnc(-c3cnc(-c4ccc5cc(C#N)cnn45)cc3NC3(C)CCOCC3)s1)C2` [Compound 272, N-((1R,5S,8s)-3-(5-(6-(3-cyanopyrrolo[1,2-b]pyridazin-7-yl)-4-((4-methyltetrahydro-2H-pyran-4-yl)amino)pyridin-3-yl)-1,3,4-thiadiazol-2-yl)-3-azabicyclo[3.2.1]octan-8-yl)acetamide], the EC50 in test [1] (Homo sapiens, Monocyte) is 4.1 nM. For the same compound, the IC50 in test [2] turned out to be 1.1 nM.

For `CC(C)Nc1cc(-c2ccc3cc(C#N)cnn23)ncc1-c1nnc(N2C3CC2CN(C(=O)CN=S(C)(C)=O)C3)s1` [Compound 276, 7-(5-(5-(3-(2-((dimethyl(oxo)-16-sulfanylidene)amino)acetyl)-3,6-diazabicyclo[3.1.1]heptan-6-yl)-1,3,4-thiadiazol-2-yl)-4-(isopropylamino)pyridin-2-yl)pyrrolo[1,2-b]pyridazinc-3-carbonitrile], in test [1] (Homo sapiens, Monocyte), the EC50 came out at 7.8 nM. Moreover, the IC50 in test [2] was 0.89 nM.

For the compound `CC(=O)N[C@H]1C[C@H](c2nnc(-c3cnc(-c4ccc5cc(C#N)cnn45)cc3NC(C)C)s2)C1` [Compound 278, N-((1r,3r)-3-(5-(6-(3-cyanopyrrolo[1,2-b]pyridazin-7-yl)-4-(isopropylamino)pyridin-3-yl)-1,3,4-thiadiazol-2-yl)cyclobutyl)acetamide], the EC50 in test [1] (Homo sapiens, Monocyte) was ≥ 10000 nM. Further, the IC50 in test [2] came out at 0.07 nM.

`CC(=O)N[C@H]1C[C@@H](c2nnc(-c3cnc(-c4ccc5cc(C#N)cnn45)cc3NC(C)C)s2)C1` [Compound 279, N-((1s,3s)-3-(5-(6-(3-cyanopyrrolo[1,2-b]pyridazin-7-yl)-4-(isopropylamino)pyridin-3-yl)-1,3,4-thiadiazol-2-yl)cyclobutyl)acetamide]: the EC50 in test [1] (Homo sapiens, Monocyte) was found to be 15.9 nM. Also, the IC50 in test [2] is 0.4 nM.

Regarding `CC(=O)N[C@@H]1CCN(c2nnc(-c3cnc(-c4ccc5cc(C#N)cnn45)cc3NC(C)C)s2)C[C@@H]1O` [Example 63, N-((3S,4R)-1-(5-(6-(3-cyanopyrrolo[1,2-b]pyridazin-7-yl)-4-(isopropylamino)pyridin-3-yl)-1,3,4-thiadiazol-2-yl)-3-hydroxypiperidin-4-yl)acetamide], the IC50 in test [2] came to 0.29 nM.

`CC(C)Nc1cc(-c2ccc3cc(C#N)cnn23)ncc1-c1nnc(N2C[C@H]3CC[C@@H](C2)[C@H]3O)s1` [Example 146, 7-(5-(5-((1R,5S,8r)-8-hydroxy-3-azabicyclo[3.2.1]octan-3-yl)-1,3,4-thiadiazol-2-yl)-4-(isopropylamino)pyridin-2-yl)pyrrolo[1,2-b]pyridazine-3-carbonitrile]: the IC50 in test [2] is 0.48 nM.

Take `CC(C)Nc1cc(-c2ccc3cc(C#N)cnn23)ncc1-c1nnc(N2C[C@H]3CC[C@@H](C2)[C@@H]3O)s1` [Example 154, 7-(5-(5-((1R,5S,8s)-8-hydroxy-3-azabicyclo[3.2.1]octan-3-yl)-1,3,4-thiadiazol-2-yl)-4-(isopropylamino)pyridin-2-yl)pyrrolo[1,2-b]pyridazine-3-carbonitrile]: the IC50 in test [2] is 1.57 nM.
